# From the supplement of paper PMC11451515
# Tested on: SEM cells
# Assay: cell viability relative to DMSO control; higher = less cytotoxic
# Details: 48 h
# In short: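 NOMO1, SEM and P12-Ichikawa leukemia cells spent at least four passages adapting to each medium before use. They were seeded at 500 cells/well (NOMO1, SEM) or 1000 cells/well (P12-Ichikawa) in 5 μl in 1536-well plates and pin-dosed with library compounds in DMSO at 11 threefold steps from 47 μM down to 0.79 nM. After 48 h at 37°C, CellTiter-Glo One luminescence was read. Viability is reported as a percentage of the DMSO wells on each plate, with cell-free wells as background.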
# [1] = HPLM + 10% dialyzed FBS, 0.000781 µM
# [2] = HPLM + 10% dialyzed FBS, 0.00234 µM
# [3] = HPLM + 10% dialyzed FBS, 0.00702 µM
# [4] = HPLM + 10% dialyzed FBS, 0.0211 µM
# [5] = HPLM + 10% dialyzed FBS, 0.0632 µM
# [6] = HPLM + 10% dialyzed FBS, 0.19 µM
# [7] = HPLM + 10% dialyzed FBS, 0.569 µM
# [8] = HPLM + 10% dialyzed FBS, 1.71 µM
# [9] = HPLM + 10% dialyzed FBS, 5.12 µM
# [10] = HPLM + 10% dialyzed FBS, 15.4 µM
# [11] = HPLM + 10% dialyzed FBS, 46.1 µM
# [12] = RPMI 5 mM glucose + 10% FBS, 0.000781 µM
# [13] = RPMI 5 mM glucose + 10% FBS, 0.00234 µM
# [14] = RPMI 5 mM glucose + 10% FBS, 0.00702 µM
# [15] = RPMI 5 mM glucose + 10% FBS, 0.0211 µM
# [16] = RPMI 5 mM glucose + 10% FBS, 0.0632 µM
# [17] = RPMI 5 mM glucose + 10% FBS, 0.19 µM
# [18] = RPMI 5 mM glucose + 10% FBS, 0.569 µM
# [19] = RPMI 5 mM glucose + 10% FBS, 1.71 µM
# [20] = RPMI 5 mM glucose + 10% FBS, 5.12 µM
# [21] = RPMI 5 mM glucose + 10% FBS, 15.4 µM
# [22] = RPMI 5 mM glucose + 10% FBS, 46.1 µM
# [23] = RPMI 5 mM glucose + 10% dialyzed FBS, 0.000781 µM
# [24] = RPMI 5 mM glucose + 10% dialyzed FBS, 0.00234 µM
# [25] = RPMI 5 mM glucose + 10% dialyzed FBS, 0.00702 µM
# [26] = RPMI 5 mM glucose + 10% dialyzed FBS, 0.0211 µM
# [27] = RPMI 5 mM glucose + 10% dialyzed FBS, 0.0632 µM
# [28] = RPMI 5 mM glucose + 10% dialyzed FBS, 0.19 µM
# [29] = RPMI 5 mM glucose + 10% dialyzed FBS, 0.569 µM
# [30] = RPMI 5 mM glucose + 10% dialyzed FBS, 1.71 µM
# [31] = RPMI 5 mM glucose + 10% dialyzed FBS, 5.12 µM
# [32] = RPMI 5 mM glucose + 10% dialyzed FBS, 15.4 µM
# [33] = RPMI 5 mM glucose + 10% dialyzed FBS, 46.1 µM
Compound,cell viability [1],cell viability [2],cell viability [3],cell viability [4],cell viability [5],cell viability [6],cell viability [7],cell viability [8],cell viability [9],cell viability [10],cell viability [11],cell viability [12],cell viability [13],cell viability [14],cell viability [15],cell viability [16],cell viability [17],cell viability [18],cell viability [19],cell viability [20],cell viability [21],cell viability [22],cell viability [23],cell viability [24],cell viability [25],cell viability [26],cell viability [27],cell viability [28],cell viability [29],cell viability [30],cell viability [31],cell viability [32],cell viability [33]
Cc1cc(SCc2sc(-c3ccc(C(F)(F)F)cc3)nc2C)ccc1OCC(=O)O,98.4%,102%,98.3%,113%,102%,109%,113%,105%,99.3%,48.9%,98.4%,94.3%,101%,89.4%,102%,102%,105%,100%,104%,114%,57.5%,93.5%,99.9%,101%,96.1%,97%,109%,92.5%,102%,109%,99.4%,48.3%,97.9%
COc1cc(NC(=O)c2ccc(-c3ccc(Cl)cc3)o2)cc(OC)c1,73%,94.6%,93.6%,106%,98.5%,114%,116%,107%,107%,94.3%,107%,77.7%,90%,103%,104%,107%,96.8%,94.2%,86.4%,102%,105%,98.9%,81.2%,96.2%,95.9%,102%,105%,95.4%,96.4%,89.7%,99.8%,109%,90.1%
Nc1nc(Nc2ccc([S+](N)(=O)[O-])cc2)nn1C(=O)c1c(F)cccc1F,104%,111%,97.8%,133%,104%,113%,123%,116%,64.1%,32.1%,5.68%,100%,107%,113%,110%,114%,101%,100%,109%,76.5%,34.7%,6.53%,88.9%,108%,114%,115%,110%,122%,111%,123%,64.8%,34.5%,4.33%
CCc1cccc2c3c([nH]c12)C(CC)(CC(=O)O)OCC3 (stereo unspecified),105%,90.9%,105%,112%,101%,120%,114%,108%,103%,47.2%,103%,83.6%,37.6%,85.4%,96.2%,98%,87.6%,105%,102%,105%,40.7%,91.9%,94.2%,93%,102%,107%,112%,103%,102%,110%,105%,34.7%,89.4%
COC(=O)Nc1ccc(-c2nc(N3CCOCC3)c3cnn(C4CCN(Cc5cccnc5)CC4)c3n2)cc1,86.4%,98%,99%,92.5%,93.5%,57.9%,46.6%,50.9%,21.4%,10.6%,7.36%,119%,98%,85.5%,99.9%,75.4%,54.2%,33.3%,35.9%,4.31%,2.26%,3.9%,125%,128%,112%,105%,89.9%,67.8%,43.7%,40.3%,6.29%,3.11%,4.53%
CCN1\C=C(C(O)=O)/C(=O)C2=C1C=C(N3CCN(C)CC3)C(=C2)F,107%,112%,98.6%,117%,104%,115%,129%,105%,109%,110%,96.7%,108%,112%,128%,116%,107%,120%,105%,117%,108%,107%,103%,107%,114%,108%,107%,95.6%,108%,106%,83.6%,106%,109%,91.8%
O=[N+]([O-])c1ccc(Nc2ccccc2-c2ccccc2)c2nonc12,71.9%,79.4%,90.5%,84.4%,63.4%,62%,68.8%,62.8%,78.1%,48.7%,26.4%,93.5%,91.7%,100%,102%,77.6%,52.2%,83.8%,48.9%,61.6%,32.2%,27%,72.6%,70.5%,80.5%,90.9%,58.8%,62.8%,64.8%,30.9%,54.4%,42.3%,26.1%
